One assay deals with BRD4-BD1 (Homo sapiens (Human), UniProt O60885). As to the kind of experiment: BRD4 AlphaScreen assay, BRD4-BD1. In kind it is binding. The following applies: biotin-labeled tetra-acetylated histone H4 peptide, 75 min, room temperature, read-out: BRD4 BD-1 enzyme IC50. In short, it runs like this: (§1)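 IC50 values from percent-control versus log inhibitor fits after bead-based proximity readout (streptavidin donor, GSH acceptor, 75 min dark). Reactions: 75 min RT, pH 7.4 HEPES, biotin-H4Ac4 peptide 50 nM, with BD1 at 3.8 nM (DMSO 1.25%) and BD2 at 20 nM (DMSO 0.83%).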
(Alpha assays give light when donor and acceptor beads are brought close together.)

In a further assay the target is BRD4-BD2 (Homo sapiens (Human), UniProt O60885). The assay is described as follows: BRD4 AlphaScreen assay, BRD4-BD2. In kind it is binding. The note with it: biotin-labeled tetra-acetylated histone H4 peptide, 75 min, room temperature, read-out: BRD4 BD-2 enzyme IC50. In short, it runs like this: as §1

Counter-ions that a name gives are not always drawn.

The term IC50 denotes the concentration that inhibits the measured activity by half. `Cc1nnc2ccc3c(cc(-c4ccn(C5CN(C(=O)C6CC6)C5)n4)n3Cc3cccc(Cl)c3)n12` [Example 164, 6-(3-Chlorobenzyl)-7-{1-[1-(cyclopropylcarbonyl)azetidin-3-yl]-1H-pyrazol-3-yl}-1-methyl-6H-pyrrolo[2,3-e][1,2,4]triazolo[4,3-a]pyridine Trifluoroacetate Salt]: the IC50 at BRD4-BD1 and at BRD4-BD2 was not above 0.1 µM in each case.
As for `Cc1nnc2ccc3c(cc(-c4ccn(C5CN(S(=O)(=O)C6CC6)C5)n4)n3Cc3cccc(Cl)c3)n12` [Example 165, 6-(3-Chlorobenzyl)-7-{1-[1-(cyclopropylsulfonyl)azetidin-3-yl]-1H-pyrazol-3-yl}-1-methyl-6H-pyrrolo[2,3-e][1,2,4]triazolo[4,3-a]pyridine Trifluoroacetate Salt], the IC50 on BRD4-BD1 and at BRD4-BD2 was not above 0.1 µM throughout.
On to `CCS(=O)(=O)N1CC(n2ccc(-c3cc4c(ccc5nnc(C)n54)n3Cc3cccc(Cl)c3)n2)C1` [Example 166, 6-(3-Chlorobenzyl)-7-{1-[1-(ethylsulfonyl)azetidin-3-yl]-1H-pyrazol-3-yl}-1-methyl-6H-pyrrolo[2,3-e][1,2,4]triazolo[4,3-a]pyridine Trifluoroacetate Salt], for which the IC50 on BRD4-BD1 and on BRD4-BD2 was not above 0.1 µM in each case.
In the case of `CCOC(=O)N1CC(n2ccc(-c3cc4c(ccc5nnc(C)n54)n3Cc3cccc(Cl)c3)n2)C1` [Example 167, Ethyl 3-{3-[6-(3-chlorobenzyl)-1-methyl-6H-pyrrolo[2,3-e][1,2,4]triazolo[4,3-a]pyridin-7-yl]-1H-pyrazol-1-yl}azetidine-1-carboxylate Trifluoroacetate Salt], the IC50 on BRD4-BD1 and on BRD4-BD2 was not above 0.1 µM each time.
Consider `Cc1nnc2ccc3c(cc(-c4ccn(CCC(=O)NC5COC5)n4)n3Cc3cccc(Cl)c3)n12` [Example 168, 3-{3-[6-(3-Chlorobenzyl)-1-methyl-6H-pyrrolo[2,3-e][1,2,4]triazolo[4,3-a]pyridin-7-yl]-1H-pyrazol-1-yl}-N-oxetan-3-ylpropanamide Trifluoroacetate Salt], for which the IC50 at BRD4-BD1 and at BRD4-BD2 was not above 0.1 µM in each case.
Consider `Cc1nnc2ccc3c(cc(-c4ccn(CCC(=O)N5CCOCC5)n4)n3Cc3cccc(Cl)c3)n12` [Example 169, 6-(3-Chlorobenzyl)-1-methyl-7-[1-(3-morpholin-4-yl-3-oxopropyl)-1H-pyrazol-3-yl]-6H-pyrrolo[2,3-e][1,2,4]triazolo[4,3-a]pyridine Trifluoroacetate Salt], for which the IC50 on BRD4-BD1 and on BRD4-BD2 was not above 0.1 µM throughout.
Consider `Cc1nnc2ccc3c(cc(-c4ccn(CCC(=O)NC5CCOCC5)n4)n3Cc3cccc(Cl)c3)n12` [Example 170, 3-{3-[6-(3-Chlorobenzyl)-1-methyl-6H-pyrrolo[2,3-e][1,2,4]triazolo[4,3-a]pyridin-7-yl]-1H-pyrazol-1-yl}-N-(tetrahydro-2H-pyran-4-yl)propanamide Trifluoroacetate Salt], for which the IC50 on BRD4-BD1 and on BRD4-BD2 was not above 0.1 µM each time.
For `Cc1nnc2ccc3c(cc(-c4ccn(CCC(=O)NC5CN(C)C5)n4)n3Cc3cccc(Cl)c3)n12` [Example 171, 3-{3-[6-(3-Chlorobenzyl)-1-methyl-6H-pyrrolo[2,3-e][1,2,4]triazolo[4,3-a]pyridin-7-yl]-1H-pyrazol-1-yl}-N-(1-methylazetidin-3-yl)propanamide bis(trifluoroacetate) Salt], the IC50 at BRD4-BD1 and at BRD4-BD2 was not above 0.1 µM in each case.
In the case of `Cc1nnc2ccc3c(cc(-c4c[nH]cn4)n3Cc3cccc(Cl)c3)n12` [Example 172, 6-(3-Chlorobenzyl)-7-(1H-imidazol-4-yl)-1-methyl-6H-pyrrolo[2,3-e][1,2,4]triazolo[4,3-a]pyridine bis(trifluoroacetate) Salt], the IC50 at BRD4-BD1 and at BRD4-BD2 was not above 0.1 µM each time.
Take `Cc1nnc2ccc3c(cc(-c4ccn(CCCO)n4)n3Cc3cccc(Cl)c3)n12` [Example 173, 3-{3-[6-(3-Chlorobenzyl)-1-methyl-6H-pyrrolo[2,3-e][1,2,4]triazolo[4,3-a]pyridin-7-yl]-1H-pyrazol-1-yl}propan-1-ol Trifluoroacetate Salt]: the IC50 at BRD4-BD1 and on BRD4-BD2 was not above 0.1 µM in each case.
Turning to `CNC(=O)CCn1ccc(-c2cc3c(ccc4nnc(C)n43)n2Cc2cccc(Cl)c2)n1` [Example 174, 3-{3-[6-(3-Chlorobenzyl)-1-methyl-6H-pyrrolo[2,3-e][1,2,4]triazolo[4,3-a]pyridin-7-yl]-1H-pyrazol-1-yl}-N-methylpropanamide Trifluoroacetate Salt], the IC50 at BRD4-BD1 and on BRD4-BD2 was not above 0.1 µM throughout.
Consider `CCNC(=O)CCn1ccc(-c2cc3c(ccc4nnc(C)n43)n2Cc2cccc(Cl)c2)n1` [Example 175, 3-{3-[6-(3-Chlorobenzyl)-1-methyl-6H-pyrrolo[2,3-e][1,2,4]triazolo[4,3-a]pyridin-7-yl]-1H-pyrazol-1-yl}-N-ethylpropanamide Trifluoroacetate Salt], for which the IC50 on BRD4-BD1 and at BRD4-BD2 was not above 0.1 µM each time.
As for `Cc1nnc2ccc3c(cc(-c4ccn(CCC(=O)NC(C)(C)C)n4)n3Cc3cccc(Cl)c3)n12` [Example 176, N-(tert-Butyl)-3-{3-[6-(3-chlorobenzyl)-1-methyl-6H-pyrrolo[2,3-e][1,2,4]triazolo[4,3-a]pyridin-7-yl]-1H-pyrazol-1-yl}propanamide Trifluoroacetate Salt], the IC50 at BRD4-BD1 and on BRD4-BD2 was not above 0.1 µM in each case.
With `Cc1nnc2ccc3c(cc(-c4ccn(C5COC5)n4)n3Cc3cccc(Cl)c3)n12` [Example 177, 6-(3-Chlorobenzyl)-1-methyl-7-(1-oxetan-3-yl-1H-pyrazol-3-yl)-6H-pyrrolo[2,3-e][1,2,4]triazolo[4,3-a]pyridine Trifluoroacetate Salt], the IC50 on BRD4-BD1 and at BRD4-BD2 was not above 0.1 µM each time.
`Cc1nnc2ccc3c(cc(-c4ccn(CCO)n4)n3Cc3cccc(Cl)c3)n12` [Example 178, 2-{3-[6-(3-Chlorobenzyl)-1-methyl-6H-pyrrolo[2,3-e][1,2,4]triazolo[4,3-a]pyridin-7-yl]-1H-pyrazol-1-yl}ethanol Trifluoroacetate Salt]: the IC50 on BRD4-BD1 and on BRD4-BD2 was not above 0.1 µM each time.
As to `Cc1nnc2ccc3c(cc(-c4ccn(C5CN(CCO)C5)n4)n3Cc3cccc(Cl)c3)n12` [Example 179, 2-(3-{3-[6-(3-Chlorobenzyl)-1-methyl-6H-pyrrolo[2,3-e][1,2,4]triazolo[4,3-a]pyridin-7-yl]-1H-pyrazol-1-yl}azetidin-1-yl)ethanol bis(trifluoroacetate) Salt], the IC50 on BRD4-BD1 and on BRD4-BD2 was not above 0.1 µM throughout.
Regarding `Cc1nnc2ccc3c(cc(-c4ccn(C5CN(CCC#N)C5)n4)n3Cc3cccc(Cl)c3)n12` [Example 181, 3-(3-{3-[6-(3-Chlorobenzyl)-1-methyl-6H-pyrrolo[2,3-e][1,2,4]triazolo[4,3-a]pyridin-7-yl]-1H-pyrazol-1-yl}azetidin-1-yl)propanenitrile bis(trifluoroacetate) Salt], the IC50 on BRD4-BD1 and at BRD4-BD2 was not above 0.1 µM throughout.
With `Cc1nnc2ccc3c(cc(-c4ccn(CCC#N)n4)n3Cc3cccc(CN4CCC4)c3)n12` [Example 183, 3-(3-{6-[3-(Azetidin-1-ylmethyl)benzyl]-1-methyl-6H-pyrrolo[2,3-e][1,2,4]triazolo[4,3-a]pyridin-7-yl}-1H-pyrazol-1-yl)propanenitrile bis(trifluoroacetate) Salt], the half-inhibitory concentration (IC50) on BRD4-BD1 and on BRD4-BD2 was not above 0.1 µM each time.
`Cc1nnc2ccc3c(cc(-c4ccn(C)n4)n3Cc3cc(Cl)cc(CN4CCC4)c3)n12` [Example 185, 6-[3-(Azetidin-1-ylmethyl)-5-chlorobenzyl]-1-methyl-7-(1-methyl-1H-pyrazol-3-yl)-6H-pyrrolo[2,3-e][1,2,4]triazolo[4,3-a]pyridine tris(trifluoroacetate) Salt]: the IC50 on BRD4-BD1 and on BRD4-BD2 was not above 0.1 µM each time.
On to `CCn1ccc(-c2cc3c(ccc4nnc(C)n43)n2Cc2cc(Cl)cc(CN3CCC3)c2)n1` [Example 188, 6-(3-(Azetidin-1-ylmethyl)-5-chlorobenzyl)-7-(1-ethyl-1H-pyrazol-3-yl)-1-methyl-6H-pyrrolo[2,3-e][1,2,4]triazolo[4,3-a]pyridine tris(trifluoroacetate) Salt], for which the IC50 at BRD4-BD1 and on BRD4-BD2 was not above 0.1 µM in each case.
In the case of `CCn1ccc(-c2cc3c(ccc4nnc(C)n43)n2Cc2cc(Cl)cc(CN3CCCC3)c2)n1` [Example 189, 6-(3-Chloro-5-(pyrrolidin-1-ylmethyl)benzyl)-7-(1-ethyl-1H-pyrazol-3-yl)-1-methyl-6H-pyrrolo[2,3-e][1,2,4]triazolo[4,3-a]pyridine tris(trifluoroacetate) Salt], the IC50 at BRD4-BD1 and on BRD4-BD2 was not above 0.1 µM each time.
`Cc1nnc2ccc3c(cc(-c4ccn(C)n4)n3Cc3cc(Cl)cc(CN4CCCC4)c3)n12` [Example 190, 6-[3-Chloro-5-(pyrrolidin-1-ylmethyl)benzyl]-1-methyl-7-(1-methyl-1H-pyrazol-3-yl)-6H-pyrrolo[2,3-e][1,2,4]triazolo[4,3-a]pyridine bis(trifluoroacetate) Salt]: the IC50 on BRD4-BD1 and at BRD4-BD2 was not above 0.1 µM in each case.
For `Cc1nnc2ccc3c(cc(-c4ccn(C)n4)n3Cc3cc(Cl)cc(CN4CCOCC4)c3)n12` [Example 192, 6-[3-Chloro-5-(morpholin-4-ylmethyl)benzyl]-1-methyl-7-(1-methyl-1H-pyrazol-3-yl)-6H-pyrrolo[2,3-e][1,2,4]triazolo[4,3-a]pyridine bis(trifluoroacetate) Salt], the IC50 on BRD4-BD1 and on BRD4-BD2 was not above 0.1 µM in each case.

The values are drawn from patent US9777003B2, “Tricyclic heterocycles as bet protein inhibitors” (Incyte Corporation, priority 2013, dated 2017).
